Source: paper PMC8389614, “A Comparison of Acute Pharmacological Effects of Methylone and MDMA Administration in Humans and Oral Fluid Concentrations as Biomarkers of Exposure” (Biology, 2021)

Tests used:
healthy poly-drug users [1] = assay: Physiological effects (non-invasive SBP, DBP, HR, cutaneous temperature) after oral self-administration; type: in vivo, humans; set-up: key to HR Dunnet’s Test: “a” (times 0–1 h); “b” (times 0–2 h); “c” (times 0–4 h); not significant (NS)
From the text: (§1) The study was designed as a non-controlled prospective observational study in a naturalistic setting with methylone and MDMA self-administration. The methodology, including procedures and evaluations, coincides with previous observational–naturalistic studies aimed at evaluating the acute effects of other NPS [38, 39, 40]. Six subjects (5 M, 1 F) self-administered MDMA and 8 subjects (5 M, 3 F) self-administered methylone. Each subject participated only in one session. Participants brought their own substance obtained from an unknown source, which was tested by Energy Control, a harm reduction organization that provides a drug checking service to drug users. Pills containing methylone and MDMA were analyzed by gas chromatography associated with mass spectrometry (GC/MS), a technique that traces the presence of the most frequent drugs of abuse, such as MDMA, cocaine, heroin, amphetamine and methamphetamine, LSD, and multiple NPS (methylone, mephedrone, and other synthetic cathinones, synthetic cannabinoids, tryptamines, among others).
(§2) In both sessions, participants selected the dose of methylone or MDMA according to their previous drug use experience. Doses of methylone could be selected from a range (75–300 mg) that was previously defined according to the consulted literature. The WHO Expert Committee on Drug Dependence (Thirty-Sixth Meeting, Geneva, Switzerland, 16–20 June 2014) established that 60 mg of methylone was the threshold dose and doses over 250 mg were often related to very strong activity. Some users have reported uses of 300 mg of methylone as a common dose [www.erowid.org] (accessed on 15 June 2021). The mean of the selected doses of MDMA was 87.50 mg (3 subjects ingested 75 mg (2 males and 1 female), 3 males 100 mg). In the other study session, methylone doses ranged from 100 to 300 mg, with a mean of 187.50 mg. Based on their dose selection, 1 male ingested 100 mg, 2 subjects 150 mg (1 male and 1 female), 4 subjects 200 mg (2 males and 2 females), and 1 male 300 mg.
(§3) The sessions were conducted in a naturalistic setting. Participants were allowed to talk, read, listen to music, or play games, except during the evaluation times. However, they were asked to refrain from talking about the effects of the substance. All the subjects were evaluated simultaneously at baseline, 1, 2, and 4 h after administration of methylone or MDMA, which occurred approximately at 16:00 h. At each time point, evaluations were followed in a specific order: physiological effects, oral fluid collection, and subjective effects scales and questionnaires.
Non-invasive systolic blood pressure (SBP), diastolic blood pressure (DBP), and heart rate (HR) were measured with subjects in the sitting position, using an automatic Omron monitor at baseline, 1, 2, and 4 h (h) after self-administration. Cutaneous temperature was determined at the same time points.
Vital signs (SBP, DBP, and HR) and subjective effects (VAS, ARCI, and VESSPA-SSE) were baseline-adjusted. Maximum effects and the time in which maximum effects appeared were determined, and the area under the curve (AUC0–4h) was calculated with the trapezoidal rule.
Thirdly, to find possible significant changes from baseline, a Dunnett multiple comparison test was conducted to compare each time point with baseline in both drug conditions (0–1 h, 0–2 h, 0–4 h).

healthy poly-drug users [2] = assay: Subjective effects, visual analogue scales (VAS); type: in vivo, humans; set-up: key to VAS stimulated Dunnet’s Test / VAS change in lights Dunnet’s Test / VAS different body feeling Dunnet’s Test / VAS different surrounding Dunnet’s Test / VAS dizziness Dunnet’s Test / VAS headache Dunnet’s Test / VAS face flushing Dunnet’s Test: “a” (times 0–1 h); “b” (times 0–2 h); “c” (times 0–4 h); not significant (NS)
From the text: as §1, §2, §3
Subjective effects were evaluated at baseline, 1, 2, and 4 h after self-administration using visual analogue scales (VAS), the Addiction Research Center Inventory (ARCI), and the Evaluation of Subjective Effects of Substances with Abuse Potential questionnaire (VESSPA-SSE).
Visual analogue scales (100 mm, from “not at all” to “extremely”) contained 30 items that subjects were asked to rate, such as: intensity, stimulated, high, good effects, liking, happiness, drunkenness, changes in colors, changes in shapes, changes in lights, hallucinations (seeing lights or spots), hallucinations (seeing of animals), changes in hearing, hallucinations (hearing sounds or voices), different or changed body feeling, unreal body feeling, changes in distances, different surroundings, unreal surroundings, confusion, fear, depression or sadness, drowsiness, dizziness, bad effects, headache, sickness, vertigo, shortness of breath, and face flushing.
Vital signs (SBP, DBP, and HR) and subjective effects (VAS, ARCI, and VESSPA-SSE) were baseline-adjusted. Maximum effects and the time in which maximum effects appeared were determined, and the area under the curve (AUC0–4h) was calculated with the trapezoidal rule. […]

[3] = oral, methylone 100–300 mg n=8, MDMA 75–100 mg n=6, baseline-adjusted, mean ± SD
[4] = time points significantly different from baseline

In the case of `CNC(C)Cc1ccc2c(c1)OCO2` (stereo not drawn) [MDMA, 3,4-methylenedioxymethamphetamine], the “DBP AUC0–4h” value (healthy poly-drug users [1]; [3]) is reported as 78.92 ± 30.33, the “DBP Emax” value (healthy poly-drug users [1]; [3]) is reported as 32.17 ± 11.29 mmHg and the “HR AUC0–4h” value (healthy poly-drug users [1]; [3]) is reported as 23.83 ± 38.73. The “HR Emax” value (healthy poly-drug users [1]; [3]) was 10.67 ± 18.22 bpm, the “SBP AUC0–4h” value (healthy poly-drug users [1]; [3]) was 107.67 ± 44.34 and the “SBP Emax” value (healthy poly-drug users [1]; [3]) was 46.83 ± 20.83 mmHg. The “Variation in cutaneous temperature” value (healthy poly-drug users [1]; oral, methylone 100–300 mg, MDMA 75–100 mg, versus baseline, 0–4 h) was “Neither of the substances caused significant variations”, the “DBP Dunnet’s Test” value (healthy poly-drug users [1]; [4]) was “a, b” and the “HR Dunnet’s Test” value (healthy poly-drug users [1]; [4]) was “NS”. For the same molecule, the “SBP Dunnet’s Test” value (healthy poly-drug users [1]; [4]) was “a, b”, the “Time at which subjective effects in general reached maximum values” (healthy poly-drug users [2]; oral, VAS, ARCI, VESSPA-SSE overall) was 1.5 h and the “VAS change in lights AUC0–4h” value (healthy poly-drug users [2]; [3]) was 40.00 ± 53.35. The “VAS change in lights Emax” value (healthy poly-drug users [2]; [3]) was 20.00 ± 25.11 mm, the “VAS content AUC0–4h” value (healthy poly-drug users [2]; [3]) was 186.25 ± 52.39 and the “VAS content Emax” value (healthy poly-drug users [2]; [3]) was 74.50 ± 18.96 mm. The “VAS different body feeling AUC0–4h” value (healthy poly-drug users [2]; [3]) was 95.25 ± 53.40, the “VAS different body feeling Emax” value (healthy poly-drug users [2]; [3]) was 50.33 ± 22.59 mm and the “VAS different surrounding AUC0–4h” value (healthy poly-drug users [2]; [3]) was 27.33 ± 39.71. The “VAS different surrounding Emax” value (healthy poly-drug users [2]; [3]) was 17.33 ± 17.68 mm, the “VAS dizziness AUC0–4h” value (healthy poly-drug users [2]; [3]) was 20.17 ± 20.68 and the “VAS dizziness Emax” value (healthy poly-drug users [2]; [3]) was 13.00 ± 9.84 mm. The “VAS face flushing AUC0–4h” value (healthy poly-drug users [2]; [3]) was 89.33 ± 58.31, the “VAS face flushing Emax” value (healthy poly-drug users [2]; [3]) was 45.00 ± 22.74 mm and the “VAS good effects AUC0–4h” value (healthy poly-drug users [2]; [3]) was 167.67 ± 54.01. For the same molecule, the “VAS good effects Emax” value (healthy poly-drug users [2]; [3]) was 67.83 ± 16.51 mm, the “VAS headache AUC0–4h” value (healthy poly-drug users [2]; [3]) was 10.58 ± 18.86 and the “VAS headache Emax” value (healthy poly-drug users [2]; [3]) was 5.83 ± 7.68 mm. For the same molecule, the “VAS high AUC0–4h” value (healthy poly-drug users [2]; [3]) was 136.92 ± 41.05, the “VAS high Emax” value (healthy poly-drug users [2]; [3]) was 60.17 ± 14.96 mm and the “VAS intensity AUC0–4h” value (healthy poly-drug users [2]; [3]) was 111.33 ± 36.34. For the same molecule, the “VAS intensity Emax” value (healthy poly-drug users [2]; [3]) was 47 ± 11.19 mm, the “VAS stimulated AUC0–4h” value (healthy poly-drug users [2]; [3]) was 113.17 ± 40.92 and the “VAS stimulated Emax” value (healthy poly-drug users [2]; [3]) was 50.17 ± 17.12 mm. For the same molecule, the “VAS change in lights Tmax” value (healthy poly-drug users [2]; oral, methylone 100–300 mg n=8, MDMA 75–100 mg n=6, median (min–max)) was 1.5 (0.0–4.0) h, the “VAS change in lights Dunnet’s Test” value (healthy poly-drug users [2]; [4]) was “NS” and the “VAS content Dunnet’s Test” value (healthy poly-drug users [2]; [4]) was “a, b, c”. The “VAS different body feeling Dunnet’s Test” value (healthy poly-drug users [2]; [4]) was “a”, the “VAS different surrounding Dunnet’s Test” value (healthy poly-drug users [2]; [4]) was “a” and the “VAS dizziness Dunnet’s Test” value (healthy poly-drug users [2]; [4]) was “NS”. For the same molecule, the “VAS face flushing Dunnet’s Test” value (healthy poly-drug users [2]; [4]) was “a”, the “VAS good effects Dunnet’s Test” value (healthy poly-drug users [2]; [4]) was “a, b” and the “VAS headache Dunnet’s Test” value (healthy poly-drug users [2]; [4]) was “NS”. For the same molecule, the “VAS high Dunnet’s Test” value (healthy poly-drug users [2]; [4]) was “a, b”, the “VAS intensity Dunnet’s Test” value (healthy poly-drug users [2]; [4]) was “a, b” and the “VAS stimulated Dunnet’s Test” value (healthy poly-drug users [2]; [4]) was “a, b”.
